In US20230193562A1, “METHOD FOR CONTROLLING VOLATILE FATTY ACID CONTENT IN PULP, PAPER, AND/OR BOARD MAKING PROCESSES” (SOLENIS TECHNOLOGIES, L.P., priority 2021, published 2023):
Where two headings read alike, the source gives them in different places.

Tested on: Microbial strains (5) isolated from paper mill water samples
Assay: VFA reduction in TGE broth cultures of paper mill microbial isolates, VFA measured by GC-FID
Assay type: cell-based
Experimental: Equipment: A Gas Chromatograph (GC) equipped with a flame ionization detector (FID) (e.g. Agilent 6890N GC or equivalent) equipped with an autosampler is utilized with a Fused Silica Capillary Column (e.g. Agilent DB-WAX UI, 30 m×0.53 mm×1.0 μm).
Sample Preparation: An aliquot (0.5 mL) of a sample is taken from a shaken sample well via pipet and transferred into a glass vial with the standard diluent (4.5 mL). The glass vial is then capped and vortexed, and a portion of the contents transferred into a GC vial.
GC Standardization: The GC is standardized by injecting 2.0 μL of each working standard using the instrument parameters listed in Table 2 below. The areas for the standards are used to create a linear calibration curve in GC software (e.g. Agilent Chemstation or equivalent).
Quantitative Sample Analysis: Samples (2 μL injection volume) are analyzed against the working standards, with appropriate dilutions made to keep sample concentrations within the range of the standards. Peak areas of the samples are compared to the standard curves to determine the amounts of each VFA present in each sample via GC software (e.g. Agilent Chemstation or equivalent).
Calibration: A working standard (10 or 50 ppm, 2 μL) is injected at the beginning and end of each set of samples, and intermittently within long sequences of sampling, and the concentration determined and compared to the to the standard curve to maintain calibration (+/−5% of standard curve).
General Procedure: Microbial strains (5) are isolated from paper mill water samples onto individual petri plates. Overnight cultures are prepared by inoculating TGE Broth (10 mL) with a single colony from each petri plate (5 isolated strains=5 colonies per 10 mL overnight culture). Each culture is then incubated overnight at 35° C. with shaking. Portions (0.6 mL ea.) of each overnight culture are added to bottles with sterile TGE broth (29.4 mL) and the resulting mixtures are incubated with shaking at 35° C. After 2 hours (T=0), an initial sample from each bottles is taken and analyzed GC as described above. The samples are then dosed with a VFA Control Agent, capped, and incubated with shaking at 35° C. Aliquots of each sample are taken at various times post-dosage and analyzed via GC as described above, with each sample bottle capped and incubated between samplings along with an uninoculated control (sterile TGE broth) and an inoculated control (untreated). % VFA reduction is reported based on the relative VFA concentration (ppm) of a sample determined against the inoculated/untreated control.

[1] = single VFA Control Agent, ppm as per Example (25-500 ppm), 4 h post-dosage, 35° C., vs inoculated/untreated control
[2] = single VFA Control Agent at 50 or 100 ppm as per Example, 0.5 h post-dosage
[3] = single VFA Control Agent at 50 or 100 ppm as per Example, 2 h post-dosage
[4] = single VFA Control Agent at 50 or 100 ppm as per Example, 2.5 h post-dosage

O=P1([O-])OP(=O)([O-])OP(=O)([O-])OP(=O)([O-])OP(=O)([O-])OP(=O)([O-])O1.[Na+].[Na+].[Na+].[Na+].[Na+].[Na+] [Example 3, Sodium hexametaphosphate]
VFA Red. at 4 h (%) [1]: 0%

O=P1([O-])OP(=O)([O-])OP(=O)([O-])OP(=O)([O-])OP(=O)([O-])OP(=O)([O-])O1.[Na+].[Na+].[Na+].[Na+].[Na+].[Na+] [Example 4, Sodium hexametaphosphate]
VFA Red. at 4 h (%) [1]: 4%

O=P(O)(O)CN(CCCCCCN(CP(=O)(O)O)CP(=O)(O)O)CCCCCCN(CP(=O)(O)O)CP(=O)(O)O [Example 5]
VFA Red. at 4 h (%) [1]: 4%

O=P(O)(O)CN(CCCCCCN(CP(=O)(O)O)CP(=O)(O)O)CCCCCCN(CP(=O)(O)O)CP(=O)(O)O [Example 6]
VFA Red. at 4 h (%) [1]: 12%

O=P(O)(O)CN(CCN(CP(=O)(O)O)CP(=O)(O)O)CCN(CP(=O)(O)O)CP(=O)(O)O [Example 7, Diethylenetriamine penta(methylene phosphonic acid)]
VFA Red. at 4 h (%): 19%

O=P(O)(O)CN(CCN(CP(=O)(O)O)CP(=O)(O)O)CCN(CP(=O)(O)O)CP(=O)(O)O [Example 8, Diethylenetriamine penta(methylene phosphonic acid)]
VFA Red. at 4 h (%): 25%

O=P(O)(O)CN(CCN(CP(=O)(O)O)CP(=O)(O)O)CCN(CP(=O)(O)O)CP(=O)(O)O [Example 24, Diethylenetriamine penta(methylene phosphonic acid)]
VFA Red. at 0.5 h (%): 2.1%
VFA Red. at 2 h (%): 6.4%
VFA Red. at 2.5 h (%): 8.2%

O=P(O)(O)CN(CCN(CP(=O)(O)O)CP(=O)(O)O)CCN(CP(=O)(O)O)CP(=O)(O)O [Example 25, Diethylenetriamine penta(methylene phosphonic acid)]
VFA Red. at 0.5 h (%): 8.3%
VFA Red. at 2 h (%): 12.5%
VFA Red. at 2.5 h (%): 9.1%

O=S([O-])O.[Na+] [Example 28, Sodium bisulfite]
VFA Red. at 0.5 h (%) [2]: 3.1%
VFA Red. at 2 h (%) [3]: 0.0%
VFA Red. at 2.5 h (%) [4]: 6.9%

O=S([O-])O.[Na+] [Example 29, Sodium bisulfite]
VFA Red. at 0.5 h (%) [2]: 1.0%
VFA Red. at 2 h (%) [3]: 14.6%
VFA Red. at 2.5 h (%) [4]: 25.5%

Diethylenetriamine penta(methylene phosphonic acid) sodium salt [Example 26]
VFA Red. at 0.5 h (%) (sodium salt): 3.1%
VFA Red. at 2 h (%) (sodium salt): 6.4%
VFA Red. at 2.5 h (%) (sodium salt): 9.1%

Diethylenetriamine penta(methylene phosphonic acid) sodium salt [Example 27]
VFA Red. at 0.5 h (%) (sodium salt): 4.2%
VFA Red. at 2 h (%) (sodium salt): 7.9%
VFA Red. at 2.5 h (%) (sodium salt): 6.9%

Polyamino polyether methylene phosphonic acid [Example 9]
VFA Red. at 4 h (%) [1]: 5%

Polyamino polyether methylene phosphonic acid [Example 10]
VFA Red. at 4 h (%) [1]: 10%
